Measurements reported in the SangsterLogP compilation.

Test: method code G-GLC, from DOI: 10.1021/es00162a015, PMID: 19995068

**Q.** For Cc1ccc(-c2ccccc2)cc1, which logP is on record?
**A.** 4.63

**Q.** Which logP does the source give for Brc1ccc(-c2ccc(Br)cc2)cc1 here?
**A.** 5.72

**Q.** With Cc1ccc(-c2ccc(C)cc2)cc1 as the molecule, how does the logP read?
**A.** 5.09

**Q.** Which logP does the source give for Clc1ccc2c(c1)Oc1ccccc1O2 here?
**A.** 4.94

**Q.** With Brc1ccc(-c2ccccc2)cc1 as the molecule, how does the logP read?
**A.** 4.96

**Q.** With Clc1ccc2oc3ccc(Cl)cc3c2c1 as the molecule, how does the logP read?
**A.** 5.44

**Q.** Which logP does the source give for Clc1c(Cl)c(Cl)c2c(c1Cl)Oc1ccccc1O2 here?
**A.** 6.2

**Q.** Which logP does the source give for Brc1ccc(Br)c(-c2cc(Br)c(Br)cc2Br)c1 here?
**A.** 7.1

**Q.** With Brc1ccccc1-c1ccccc1 as the molecule, how does the logP read?
**A.** 4.59

**Q.** Which logP does the source give for Brc1c(Br)c(Br)c(-c2c(Br)c(Br)c(Br)c(Br)c2Br)c(Br)c1Br here?
**A.** 8.58

**Q.** Which logP does the source give for Brc1cccc(-c2ccccc2)c1 here?
**A.** 4.85
